The molecules below were run against T1, hArfGAP1 (human ArfGAP1) (Homo sapiens, UniProt Q8N6T3) (assay: Yeast growth restoration screen: S. cerevisiae gcs1 knockout strain expressing hArfGAP1). Conditions: retest at various concentrations, FIG. 5; A600; compared with 3B-VEC empty vector strain.
T1 construct: expressed in transfected cells; host or cells: Saccharomyces cerevisiae strain PPY17:114-3B-141-A (gcs1::NatR, pdr5::HIS3, snq2::TRP1), galactose-induced
Format: cell-based
Text: Overexpression of heterologous proteins in the yeast Saccharomyces cerevisiae often inhibits its growth, while inhibitors of the overexpressed proteins can restore growth. These simple observations form the basis of a powerful assay to identify inhibitors of such proteins. An expression plasmid for the inducible expression of a gene of interest is introduced into a yeast strain rendered more sensitive to chemicals by deletion of efflux pumps. Protein expression is induced, cells are exposed to test chemicals, and growth is measured by optical density at 600 nm (OD600 or A600) reading.
In the instant case, a S. cerevisiae gcs1 knockout strain is employed bearing a vector expressing the heterologous protein hArfGAP1 (human ArfGAP1, the human ortholog of yeast GCS1). Generally, expression of ArfGAP1 will suppress growth of gcs1 knockout yeast and thus small molecules that inhibit ArfGAP1 will lead to observable increases in growth. This in turn allows for the direct identification of small molecules that could be used to treat LRRK2-mutation induced PD.
PPY17:114-3B-vec (gcs1::NatR, pdr5::HIS3, snq2::TRP1, ura3, ade2, carrying plasmid pRS315) [empty vector control strain]; PPY17:114-3B-141-A (gcs1::NatR, pdr5::HIS3, snq2::TRP1, ura3, ade2, carrying plasmid pPP16:141 pGAL1-hArfGAP1) [human ArfGAP1-expressing strain].
1. The day before screening, the control strain containing the empty plasmid and the selected test strain bearing the plasmid with the gene of interest were inoculated into 2 mL of SC selection medium containing 2% glucose. Cells were grown overnight at 30° C. with shaking at 220 rpm. Note: it can be observed that the yeast strain expressing human expression vector and the yeast strain containing the empty vector grow at the same rate in glucose, which represses ArfGAP1 expression.
4. The pellet was suspended in 1-mL sterile water and the A 600 was measured. […]
9. Stacks of five plates were shaken on a vortexer at low speed (e.g., setting 4 of a Genie 2 Vortex mixer) for 90 s to resuspend the yeast cells, and the A 600 was measured using a 96-well plate reader. […]

T1 sequence (Q8N6T3 whole entry): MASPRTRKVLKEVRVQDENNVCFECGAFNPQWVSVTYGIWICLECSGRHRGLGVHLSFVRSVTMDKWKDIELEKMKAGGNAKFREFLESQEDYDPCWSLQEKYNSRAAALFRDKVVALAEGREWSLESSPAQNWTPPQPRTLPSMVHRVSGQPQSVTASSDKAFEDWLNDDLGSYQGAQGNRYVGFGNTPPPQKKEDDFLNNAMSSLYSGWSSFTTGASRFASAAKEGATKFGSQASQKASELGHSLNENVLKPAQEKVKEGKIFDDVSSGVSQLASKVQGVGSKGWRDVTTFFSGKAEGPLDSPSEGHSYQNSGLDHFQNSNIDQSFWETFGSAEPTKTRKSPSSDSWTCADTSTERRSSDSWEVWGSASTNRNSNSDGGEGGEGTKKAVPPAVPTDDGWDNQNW

Growth of yeast ArfGAP1 gcs1 knockout strains, dose-dependent growth:
C/C=C(\C)CN1CCN(c2ccc(C(C)=O)cc2)CC1 [compound 5431942]
CC(=O)c1ccc(N2CCN(CC3=CC[C@H]4C[C@@H]3C4(C)C)CC2)cc1 [compound 5429814]
O=[N+]([O-])c1ccc(N2CCN(Cc3cccs3)CC2)cc1 [compound 5261344]

Reference: patent US10300055B2, “Treatment of parkinson's disease through ARFGAP1 inhibition” (Dalhousie University, priority 2014, dated 2019)
